Assays:
[1] = test system: apple scab pathogen (Venturia inaequalis); assay: Apple scab control test; format: in vivo; conditions: 336 h, 125 ppm drug solution sprayed onto apple seedlings (Orin), lesion area ratio 2 weeks after inoculation
Procedure: 5 parts by weight of the dihydropyrimidine compound of the present invention, 93.5 parts by weight of N,N-dimethylformamide, and 1.5 parts by weight of polyoxyethylene sorbitan monolaurate (TWEEN® 20) were mixed and dissolved to obtain an emulsion (I) including 5% of an active ingredient.
The control value was calculated by the following expression. Control value (%)=100−{lesion area ratio in treated group/lesion area ratio in untreated group}×100 [Expression 1]
Water was added to the emulsion (I) such that the concentration of the dihydropyrimidine compound reached 125 ppm to dissolve the emulsion, and a drug solution was obtained. Subsequently, the drug solution was sprayed onto apple seedlings (variety: “Orin”, leaf stage: 3 to 4) cultivated in seedling pots. After air drying, the seedlings were inoculated with conidiospores of an apple scab pathogen (Venturia inaequalis) (treated group). As a control, apple seedlings that were not sprayed with the drug solution were inoculated in the same manner (untreated group). The seedlings were left to stand in a humidified room at 20° C. using a 12 hour light/dark cycle.
On the day 2 weeks after the inoculation, the leaves of the apple seedlings were visually observed to determine the lesion area ratio, and the control value was calculated.

Aspergillus niger = assay: Antimicrobial test against Aspergillus niger; format: cell-based; conditions: 96 h, Vogel medium, 25° C., 4 days in the dark, turbidity at 405 nm, read-out: growth inhibition rate
Procedure: Spores of Aspergillus niger were added to and dispersed in a Vogel medium, and a dihydropyrimidine compound dissolved in dimethyl sulfoxide was added and mixed thereto at 25 ppm. The resulting solution was dispensed onto a 96-well microplate and cultivated in the dark at 25° C. for 4 days.
After the cultivation, the turbidity at a wavelength of 405 nm was measured by a microplate reader and compared with that in the untreated case to determine the growth inhibition of Aspergillus niger (%) was determined.

CCOC(=O)C(C)(C)Cn1c(=O)c(/C(C)=N/OC(C)C)cn(CC(=O)c2cc(F)ccc2OC)c1=O [A-3]
pest or weed control at 125 ppm [1]: ≥ 75%

C=CCON=Cc1cn(CC(OCCC#N)c2cc(F)ccc2OC)c(=O)n(C(C)C(=O)NC(C)C)c1=O (centres unmarked) [A-5]
pest or weed control at 125 ppm [1]: ≥ 75%

CON=Cc1cn(CC(OCCC#N)c2cc(F)ccc2OC)c(=O)n(C(C)C(=O)NC(C)C)c1=O (centres unmarked) [A-6]
pest or weed control at 125 ppm [1]: ≥ 75%

CCON=Cc1cn(CC(O)c2cc(F)ccc2OC)c(=O)n(CC(C)(C)C(=O)NC(C)C)c1=O (centres unmarked) [A-8]
pest or weed control at 125 ppm [1]: ≥ 75%

COc1ccc(F)cc1C(Cn1cc(C=NOCC2CC2)c(=O)n(C(C)C(=O)NC(C)C)c1=O)OCCC#N (centres unmarked) [A-9]
pest or weed control at 125 ppm [1]: ≥ 75%

CCON=Cc1cn(CC(OCCC#N)c2cc(F)ccc2OC)c(=O)n(CC(C)(C)C(=O)OCC)c1=O (centres unmarked) [A-13]
pest or weed control at 125 ppm [1]: ≥ 75%

CCON=Cc1cn(CC(O)c2cc(F)ccc2OC)c(=O)n(CC(C)(C)C(=O)OCC)c1=O (centres unmarked) [A-15]
pest or weed control at 125 ppm [1]: ≥ 75%

CCON=Cc1cn(CC(OCCC#N)c2cc(F)ccc2OC)c(=O)n(CCNC(=O)c2ccc(F)cc2)c1=O (centres unmarked) [A-16]
pest or weed control at 125 ppm [1]: ≥ 75%

CCON=Cc1cn(CC(O)c2cc(F)ccc2OC)c(=O)n(CCNC(=O)OC(C)(C)C)c1=O (centres unmarked) [A-19]
pest or weed control at 125 ppm [1]: ≥ 75%

CCON=Cc1cn(CC(=O)c2cc(F)ccc2OC)c(=O)n(CCNC(=O)OC(C)(C)C)c1=O [A-20]
pest or weed control at 125 ppm [1]: ≥ 75%

C#CCON=Cc1cn(CC(OCCC#N)c2cc(F)ccc2OC)c(=O)n(C(C)C(=O)NC(C)C)c1=O (centres unmarked) [A-21]
pest or weed control at 125 ppm [1]: ≥ 75%

COc1ccc(F)cc1C(Cn1cc(C=NOCC(F)(F)F)c(=O)n(C(C)C(=O)NC(C)C)c1=O)OCCC#N (centres unmarked) [A-22]
pest or weed control at 125 ppm [1]: ≥ 75%

CCO/N=C(\C)c1cn(CC(=O)c2cc(F)ccc2OC)c(=O)n(CC(C)(C)C(=O)NC(C)C)c1=O [A-26]
pest or weed control at 125 ppm [1]: ≥ 75%

CCO/N=C(\C)c1cn(CC(=O)c2cc(F)ccc2OC)c(=O)n(CCNC(=O)C(C)C)c1=O [A-36, N-(2-(5-(1-(ethoxyimino)ethyl)-3-(2-(5-fluoro-2-methoxyphenyl)-2-oxoethyl)-2,6-dioxo-3,6-dihydropyrimidin-1(2H)-yl)ethyl)isobutyramide]
pest or weed control at 125 ppm [1]: ≥ 75%

COc1cccc(C(O)Cn2cc(/C(C)=N/OC(C)C)c(=O)n(C[C@H](C)NC(=O)C(C)C)c2=O)c1 (some centres unmarked) [A-40]
pest or weed control at 125 ppm [1]: ≥ 75%

CCO/N=C(\C)c1cn(/C=C(\OC(=O)C(C)C)c2cc(F)ccc2OC)c(=O)n(C2CCCC2NC(=O)C(C)C)c1=O (centres unmarked) [A-44]
pest or weed control at 125 ppm [1]: ≥ 75%

COc1ccccc1C(O)Cn1cc(/C(C)=N/OC(C)C)c(=O)n(C[C@H](CC(C)C)NC(=O)C(C)C)c1=O (some centres unmarked) [C-43]
inhibition at 25 ppm (Aspergillus niger): ≥ 50%

CC[C@@H](Cn1c(=O)c(/C(C)=N/OC(C)C)cn(CC(O)c2cc(F)ccc2OC)c1=O)NC(=O)C(C)(C)C (some centres unmarked) [C-58]
inhibition at 25 ppm (Aspergillus niger): ≥ 50%

COc1ccc(F)cc1C(O)Cn1cc(/C(C)=N/OC(C)C)c(=O)n(C[C@H](CC(C)C)NC(=O)N(C)C)c1=O (some centres unmarked) [C-60]
inhibition at 25 ppm (Aspergillus niger): ≥ 50%

CCC(=O)N[C@@H](CC(C)C)Cn1c(=O)c(/C(C)=N/OC(C)C)cn(CC(O)c2cc(F)ccc2OC)c1=O (some centres unmarked) [C-62]
inhibition at 25 ppm (Aspergillus niger): ≥ 50%

COc1ccc(F)cc1C(O)Cn1cc(/C(C)=N/OC(C)C)c(=O)n(C[C@@H](NC(=S)N(C)C)C(C)C)c1=O (some centres unmarked) [C-63]
inhibition at 25 ppm (Aspergillus niger): ≥ 50%

COc1ccc(F)cc1C(O)Cn1cc(/C(C)=N/OC(C)C)c(=O)n(C[C@@H](NC(=O)N(C)C)C(C)C)c1=O (some centres unmarked) [C-69]
inhibition at 25 ppm (Aspergillus niger): ≥ 50%

COc1ccc(F)cc1C(O)Cn1cc(/C(C)=N/OC(C)C)c(=O)n(C[C@@H](NC(=O)CSC)C(C)C)c1=O (some centres unmarked) [C-75]
inhibition at 25 ppm (Aspergillus niger): ≥ 50%

COc1ccccc1C(O)Cn1cc(/C(C)=N/OC(C)C)c(=O)n(C[C@@H](NC(=O)N(C)C)C(C)C)c1=O (some centres unmarked) [C-77]
inhibition at 25 ppm (Aspergillus niger): ≥ 50%

COc1ccccc1C(O)Cn1cc(/C(C)=N/OC(C)C)c(=O)n(C[C@@H](NC(=O)C2CCC2)C(C)C)c1=O (some centres unmarked) [C-79]
inhibition at 25 ppm (Aspergillus niger): ≥ 50%

COc1ccc(F)cc1C(O)Cn1cc(/C(C)=N/OC(C)C)c(=O)n(C[C@@H](NC(=O)C(Cl)Cl)C(C)C)c1=O (some centres unmarked) [C-81]
inhibition at 25 ppm (Aspergillus niger): ≥ 50%

COc1ccc(F)cc1C(O)Cn1cc(/C(C)=N/OC(C)C)c(=O)n(C[C@@H](NC(=O)C2CC2)C(C)C)c1=O (some centres unmarked) [C-103]
inhibition at 25 ppm (Aspergillus niger): ≥ 50%

C=CC(=O)N[C@H](Cn1c(=O)c(/C(C)=N/OC(C)C)cn(CC(O)c2cc(F)ccc2OC)c1=O)C(C)C (some centres unmarked) [C-109]
inhibition at 25 ppm (Aspergillus niger): ≥ 50%

COc1ccc(F)cc1C(O)Cn1cc(/C(C)=N/OC(C)C)c(=O)n(C[C@H](C)NC(=O)CC(C)C)c1=O (some centres unmarked) [C-124]
inhibition at 25 ppm (Aspergillus niger): ≥ 50%

COc1ccc(F)cc1C(O)Cn1cc(/C(C)=N/OC(C)C)c(=O)n(C[C@H](C)NC(=O)C(C)(C)C)c1=O (some centres unmarked) [C-126]
inhibition at 25 ppm (Aspergillus niger): ≥ 50%

COc1ccccc1C(O)Cn1cc(/C(C)=N/OC(C)C)c(=O)n(C[C@@H](NC(=O)C(C)(C)C)C(C)C)c1=O (some centres unmarked) [C-129]
inhibition at 25 ppm (Aspergillus niger): ≥ 50%

CCC(=O)N[C@@H](C)Cn1c(=O)c(/C(C)=N/OC(C)C)cn(CC(O)c2cc(F)ccc2OC)c1=O (some centres unmarked) [C-137]
inhibition at 25 ppm (Aspergillus niger): ≥ 50%

COc1ccc(F)cc1C(O)Cn1cc(/C(C)=N/OC(C)C)c(=O)n(C[C@H](C)NC(=O)C2CC2)c1=O (some centres unmarked) [C-141]
inhibition at 25 ppm (Aspergillus niger): ≥ 50%

COc1ccc(F)cc1C(O)Cn1cc(/C(C)=N/OC(C)C)c(=O)n(C[C@H](Cc2ccccc2)NC(=O)C(C)C)c1=O (some centres unmarked) [C-168]
inhibition at 25 ppm (Aspergillus niger): ≥ 50%

CC/C(=N\OC(C)C)c1cn(CC(O)c2cc(F)ccc2OC)c(=O)n(C[C@H](C)NC(=O)C(C)C)c1=O (some centres unmarked) [C-172]
inhibition at 25 ppm (Aspergillus niger): ≥ 50%

COC(=O)N[C@@H](C)Cn1c(=O)c(/C(C)=N/OC(C)C)cn(CC(O)c2cc(F)ccc2OC)c1=O (some centres unmarked) [C-186]
inhibition at 25 ppm (Aspergillus niger): ≥ 50%

COc1ccc(F)cc1C(O)Cn1cc(/C(C)=N/OC(C)C)c(=O)n(C[C@H](C)NC(=O)OC(C)C)c1=O (some centres unmarked) [C-188]
inhibition at 25 ppm (Aspergillus niger): ≥ 50%

C/C(=N\OC(C)C)c1cn(CC(O)c2ccccc2OC(F)(F)F)c(=O)n(C[C@H](C)NC(=O)C(C)C)c1=O (stereo partly drawn) [C-194, N-((2S)-1-(3-(2-hydroxy-2-(2-(trifluoromethoxy)phenyl)ethyl)-5-((E)-1-(isopropoxyimino)ethyl)-2,6-dioxo-3,6-dihydropyrimidin-1(2H)-yl)propan-2-yl)isobutyramide]
inhibition at 25 ppm (Aspergillus niger): ≥ 50%

COc1ccc(F)cc1C(O)Cn1cc(/C(C)=N/OC(C)C)c(=O)n(C[C@@H](NC(=O)C(C)C)c2ccccc2)c1=O (some centres unmarked) [C-202]
inhibition at 25 ppm (Aspergillus niger): ≥ 50%

C/C(=N\OC(C)C)c1cn(CC(O)c2ccccc2C)c(=O)n(C[C@H](C)NC(=O)C(C)C)c1=O (some centres unmarked) [C-213]
inhibition at 25 ppm (Aspergillus niger): ≥ 50%

C=C(C)C(=O)N1CCC[C@H]1Cn1c(=O)c(/C(C)=N/OC(C)C)cn(CC(O)c2cc(F)ccc2OC)c1=O (stereo partly drawn) [D-11]
inhibition at 25 ppm (Aspergillus niger): ≥ 50%

COc1ccc(F)cc1C(O)Cn1cc(/C(C)=N/OC(C)C)c(=O)n(C[C@@H]2CCCN2C(=O)C(C)C)c1=O (stereo partly drawn) [D-20]
inhibition at 25 ppm (Aspergillus niger): ≥ 50%

COc1ccc(F)cc1C(O)Cn1cc(/C(C)=N/OC(C)C)c(=O)n(C[C@@H]2CCCN2C(=O)N(C)C)c1=O (stereo partly drawn) [D-22]
inhibition at 25 ppm (Aspergillus niger): ≥ 50%

COc1ccc(Cn2c(=O)c(/C(C)=N/OC(C)C)cn(CC(O)c3cc(F)ccc3OC)c2=O)cc1 [D-52]
inhibition at 25 ppm (Aspergillus niger): ≥ 50%

COc1cccc(Cn2c(=O)c(/C(C)=N/OC(C)C)cn(CC(O)c3cc(F)ccc3OC)c2=O)c1 [D-53]
inhibition at 25 ppm (Aspergillus niger): ≥ 50%

COc1ccccc1Cn1c(=O)c(/C(C)=N/OC(C)C)cn(CC(O)c2cc(F)ccc2OC)c1=O [D-54]
inhibition at 25 ppm (Aspergillus niger): ≥ 50%

COc1ccc(F)cc1C(O)Cn1cc(/C(C)=N/OC(C)C)c(=O)n(Cc2ccccn2)c1=O [D-56]
inhibition at 25 ppm (Aspergillus niger): ≥ 50%

Source: US12593845B2 (priority 2019, dated 2026)
